Test results published in PMC12363342, “Investigating the N-terminal linker histone H1 subtypes as substrates for JmjC lysine demethylases” (RSC Chemical Biology, 2025).
Square brackets hold non-standard residues; d marks the D form. Ends that are not written are not given here. Lys(Me2) = CN(C)CCCC[C@H](N)C(=O)O

Key:
KDM3A = test: LC-MS demethylation activity assay, KDM3A; format: biochemical, human; conditions: 2 μM KDM, 10 μM H1/H3 peptide, 10 μM FAS, 100 μM LAA, 20 μM 2OG, 50 mM HEPES pH 7.5, 2 h, room temperature; for KDM3A demethylation activity, M: M (mono-) initial methylation state; for KDM3A demethylation activity, D: D (di-) initial methylation state
Procedure: (§1) The substrate specificity of JmjC KDMs for H1 was examined using liquid chromatography coupled to mass spectrometry (LC-MS) assays. The H1 peptides (10 μM) were incubated with the recombinant KDM (2 μM) in HEPES buffer at pH 7.5 at room temperature for 2 h, in the presence of ferrous(II) ammonium sulfate (FAS, 10 μM), sodium ascorbate (LAA, 100 μM) and 2OG (20 μM), and then quenched with formic acid. N^ε-Methylated H3K9 and H3K36 peptides were used as positive controls (Fig. 3–5 and Fig. S2–S6).[26]
(§2) The catalytic domains of the JmjC KDMs used were recombinantly produced as reported in either Escherichia coli (KDM4AM1-L359,[38] KDM4DM1-L359,[39] KDM4EM1-R336,[30] KDM6BD1141–E1590[40] and KDM3CL2157-L2500) or Sf9 cells (KDM3AT515–S1317, KDM3B882–1761, and KDM5DM1-D775) as N-terminally His6-tagged proteins. […] To produce proteins, DNA sequences encoding for KDM3A, KDM3B and KDM5D were inserted into the pFB-LIC vector, containing a TEV-protease cleavable N-terminal 6x-histidine tag via ligation independent cloning (LIC). The resultant plasmids were transformed into baculovirus and Sf9 cells ([…]) which were infected with the virus stock. The cells were grown at 27 °C and 90 rpm for 70 h. Cells were then harvested and suspended in 100 mL of lysis buffer (50 mM HEPES-NaOH, pH 7.4, 500 mM NaCl, 20 mM imidazole, 0.5 mM Tris (2-carboxyethyl)phosphine (TCEP), 5% (v/v) glycerol). […] The supernatant was loaded onto a Ni-NTA gravity column, washed with 10 column volume of lysis buffer and eluted using the elution buffer (50 mM HEPES-NaOH, pH 7.4, 500 mM NaCl, 300 mM imidazole, 0.5 mM TCEP, 5% (v/v) glycerol). The eluted protein was further purified using S200 gel filtration column chromatography (50 mM HEPES-NaOH, pH 7.4, 150 mM NaCl, 0.5 mM TCEP and 5% glycerol). Protein purity was analysed by SDS-PAGE and further confirmed by mass spectrometry. Selected fractions were pooled, concentrated and stored at −80 °C.
(§3) All reagents were purchased from Sigma Aldrich and were of the highest grade available. Ferrous(II) ammonium sulfate (FAS) solutions were prepared freshly by dissolving FAS to 400 mM in 20 mM HCl with subsequent dilution to 1 mM using deionized water. Fresh 2OG (10 mM) and LAA (50 mM) solutions were prepared by dissolving the solids in deionised water. All enzyme reactions were performed in 384-well plates (Greiner Bio-One) with a final reaction volume of 50 μL. Substrate mixtures contained 50 mM HEPES pH 7.5, LAA (100 μM), FAS (10 μM), 2OG (20 μM) and an H1 isoform peptide (10 μM). Reactions were initiated by the addition of enzyme to a final concentration of 2.0 μM. After 2 h, the reactions were stopped by the addition of 5 μL of 10% (v/v) LC-MS grade formic acid (Fisher Scientific) to a final concentration of 1% (v/v). Product analyses were performed by liquid chromatography-mass spectrometry (LC-MS) using an Agilent 1290 infinity II LC system equipped with an Agilent 1290 multisampler and an Agilent 1290 high speed pump and connected to an Agilent 6550 accurate mass iFunnel quadrupole time of flight (Q-TOF) mass spectrometer. 1 μL of the reaction mixture was injected onto a 1.8 μm × 2.1 × 50 mm ZORBAX RRHD Eclipse Plus C18 column (Agilent). Solvent A consisted of HPLC grade water containing 0.1% (v/v) formic acid and solvent B consisted of MeCN containing 0.1% (v/v) formic acid. Peptides were separated using a stepwise gradient (0 min – 95% solvent A, 1.0 min – 80% solvent A, 3.0 min – 45% solvent A, 4.0 min – 45% solvent A, 5.0 min – 0% solvent A, 6.0 min – 0% solvent A, 7.0 min – 95% solvent A). This was followed by a 3 min post-run with 95% solvent A to re-equilibrate the column. All flow rates were 0.2 mL min^−1. A blank injection of HPLC grade water was carried out between each sample injection.

KDM3B = test: LC-MS demethylation activity assay, KDM3B; format: biochemical, human; conditions: 2 μM KDM, 10 μM H1/H3 peptide, 10 μM FAS, 100 μM LAA, 20 μM 2OG, 50 mM HEPES pH 7.5, 2 h, room temperature; for KDM3B demethylation activity, M: M (mono-) initial methylation state; for KDM3B demethylation activity, D: D (di-) initial methylation state
Procedure: as §1, §2, §3

KDM3C = test: LC-MS demethylation activity assay, KDM3C; format: biochemical, human; conditions: 2 μM KDM, 10 μM H1/H3 peptide, 10 μM FAS, 100 μM LAA, 20 μM 2OG, 50 mM HEPES pH 7.5, 2 h, room temperature; for KDM3C demethylation activity, M: M (mono-) initial methylation state; for KDM3C demethylation activity, D: D (di-) initial methylation state
Procedure: as §1, §2, §3

KDM4A = test: LC-MS demethylation activity assay, KDM4A; format: biochemical, human; conditions: 10 μM FAS, 100 μM LAA, 20 μM 2OG, room temperature; for KDM4A demethylation activity, M / KDM4A demethylation activity, D: 2 μM KDM, 10 μM H1/H3 peptide, 50 mM HEPES pH 7.5, 2 h; for KDM4A demethylation activity, M: M (mono-) initial methylation state; for KDM4A demethylation activity, D: D (di-) initial methylation state
Procedure: as §1, §2, §3

KDM4D = target: T1, KDM4D (Homo sapiens, UniProt Q6B0I6); test: LC-MS demethylation activity assay, KDM4D; format: biochemical; conditions: room temperature; for KDM4D demethylation activity, M / KDM4D demethylation activity, D: 2 μM KDM, 10 μM H1/H3 peptide, 50 mM HEPES pH 7.5, 2 h; for KDM4D demethylation activity, M: M (mono-) initial methylation state; for KDM4D demethylation activity, D: D (di-) initial methylation state
T1 construct: KDM4AM1-L359,[38]; KDM4DM1-L359,[39]; KDM4EM1-R336,[30]; His6 (N); made in house; host or cells: Escherichia coli
T1 sequence (Q6B0I6 1-359): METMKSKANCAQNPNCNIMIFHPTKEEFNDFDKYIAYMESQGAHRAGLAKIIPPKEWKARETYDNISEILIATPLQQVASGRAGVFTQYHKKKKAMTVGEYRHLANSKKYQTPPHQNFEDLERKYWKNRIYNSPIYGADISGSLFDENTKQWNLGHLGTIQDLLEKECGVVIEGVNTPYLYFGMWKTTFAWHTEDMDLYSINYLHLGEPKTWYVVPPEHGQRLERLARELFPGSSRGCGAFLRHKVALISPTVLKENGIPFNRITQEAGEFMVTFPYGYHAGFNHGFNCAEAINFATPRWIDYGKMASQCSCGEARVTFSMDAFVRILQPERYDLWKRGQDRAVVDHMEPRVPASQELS
Procedure: as §1, §2, §3

KDM4E = target: T2, KDM4E (Homo sapiens, UniProt B2RXH2); test: LC-MS demethylation activity assay, KDM4E; format: biochemical; conditions: room temperature; for KDM4E demethylation activity, M / KDM4E demethylation activity, D: 2 μM KDM, 10 μM H1/H3 peptide, 50 mM HEPES pH 7.5, 2 h; for KDM4E demethylation activity, M: M (mono-) initial methylation state; for KDM4E demethylation activity, D: D (di-) initial methylation state
T2 construct: KDM4DM1-L359,[39]; KDM4EM1-R336,[30]; His6 (N); made in house; host or cells: Escherichia coli
T2 sequence (B2RXH2 1-336): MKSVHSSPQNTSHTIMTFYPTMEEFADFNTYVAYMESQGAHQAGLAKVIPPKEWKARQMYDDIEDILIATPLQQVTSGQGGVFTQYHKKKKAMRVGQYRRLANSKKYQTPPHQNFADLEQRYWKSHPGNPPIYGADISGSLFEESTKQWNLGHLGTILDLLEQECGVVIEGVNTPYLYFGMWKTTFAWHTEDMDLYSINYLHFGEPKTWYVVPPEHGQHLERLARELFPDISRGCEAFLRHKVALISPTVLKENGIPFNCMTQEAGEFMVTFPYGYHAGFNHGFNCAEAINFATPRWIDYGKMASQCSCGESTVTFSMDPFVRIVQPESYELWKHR
Procedure: as §1, §2, §3

KDM5D = test: LC-MS demethylation activity assay, KDM5D; format: biochemical, human; conditions: 2 μM KDM, 10 μM H1/H3 peptide, 10 μM FAS, 100 μM LAA, 20 μM 2OG, 50 mM HEPES pH 7.5, 2 h, room temperature; for KDM5D demethylation activity, M: M (mono-) initial methylation state; for KDM5D demethylation activity, D: D (di-) initial methylation state
Procedure: as §1, §2, §3

KDM6B = test: LC-MS demethylation activity assay, KDM6B; format: biochemical, human; conditions: 2 μM KDM, 10 μM H1/H3 peptide, 10 μM FAS, 100 μM LAA, 20 μM 2OG, 50 mM HEPES pH 7.5, 2 h, room temperature; for KDM6B demethylation activity, M: M (mono-) initial methylation state; for KDM6B demethylation activity, D: D (di-) initial methylation state
Procedure: as §1, §2, §3

[1] = 10 μM FAS, 100 μM LAA, 20 μM 2OG
[2] = 2 μM KDM4D, 10 μM peptide, standard conditions, 2 h
[3] = 2 μM KDM4E, 10 μM peptide, standard conditions, 2 h

KDM4D demethylation activity, M (KDM4D; [1])	KDM4E demethylation activity, M (KDM4E; [1])	Substance	KDM3A demethylation activity, M (KDM3A)	KDM3B demethylation activity, M (KDM3B)	KDM3C demethylation activity, M (KDM3C)	KDM4A demethylation activity, M (KDM4A)	KDM5D demethylation activity, M (KDM5D)	KDM6B demethylation activity, M (KDM6B)	KDM3A demethylation activity, D (KDM3A)	KDM3B demethylation activity, D (KDM3B)	KDM3C demethylation activity, D (KDM3C)	KDM4A demethylation activity, D (KDM4A)	KDM4D demethylation activity, D (KDM4D; [1])	KDM4E demethylation activity, D (KDM4E; [1])	KDM5D demethylation activity, D (KDM5D)	KDM6B demethylation activity, D (KDM6B)	other results
● [red]	● [red]	KKKAKKmeAGATAGKRK [Peptide H1.3K25me, 15-mer linker histone H1.3 residues 20-34 peptide, mono-methylated K25]	● [red]	● [red]	● [red]	● [red]	● [red]	● [red]									
		KKKAT[Lys(Me2)]KAAGAGAAK [Peptide H1.5K25me2, 15-mer linker histone H1.5 residues 20-34 peptide, di-methylated K25]							● [red]	● [red]	● [red]	● [red]	● [red]	● [red]	● [red]	● [red]	
		KKKATK[Lys(Me2)]AAGAGAAK [Peptide H1.5K26me2, 15-mer linker histone H1.5 residues 20-34 peptide, di-methylated K26]							● [red]	● [red]	● [red]	● [red]	● [black] (black dots indicate low-level demethylation (<10% conversion))	● [green] (green dots indicate good demethylation (>50% conversion))	● [red]	● [red]	substrate conversion (demethylation) by KDM4E (KDM4E; 2 μM KDM4E, 10 μM peptide, 10 μM FAS, 100 μM LAA, 20 μM 2OG, HEPES pH 7.5, 2 h): > 40%
		KKKA[Lys(Me2)]KAGATAGKRK [Peptide H1.3K24me2, 15-mer linker histone H1.3 residues 20-34 peptide, di-methylated K24]							● [red]	● [red]	● [red]	● [yellow] (yellow dots indicate moderate demethylation (<50% conversion))	● [green] (green dots indicate good demethylation (>50% conversion))	● [green] (green dots indicate good demethylation (>50% conversion))	● [red]	● [red]	substrate conversion (demethylation) by KDM4A (KDM4A; 2 μM KDM4A, 10 μM peptide, HEPES pH 7.5, 2 h): ~23%; mono-methylated product formed by KDM4D (KDM4D; [2]): ~53%; non-methylated product formed by KDM4D (KDM4D; [2]): ~8%; unmethylated lysine product formed by KDM4E (KDM4E; [3]): ~60%
● [red]	● [red]	KKKATKmeKAAGAGAAK [Peptide H1.5K25me, 15-mer linker histone H1.5 residues 20-34 peptide, mono-methylated K25]	● [red]	● [red]	● [red]	● [red]	● [red]	● [red]									
● [red]	● [red]	SAPATGGVKmeKPHRYRPGTVAL [Peptide H3K36me, histone H3 residues 28-48 peptide with mono-methylated K36; control, reference compound]	● [red]	● [red]	● [red]	● [red]	● [red]	● [red]									
● [red]	● [red]	KKKATKKmeAAGAGAAK [Peptide H1.5K26me, 15-mer linker histone H1.5 residues 20-34 peptide, mono-methylated K26]	● [red]	● [red]	● [red]	● [red]	● [red]	● [red]									
		KKKAAK[Lys(Me2)]AGGTPRKA [Peptide H1.2K26me2, 15-mer linker histone H1.2 residues 20-34 peptide, di-methylated K26]							● [red]	● [red]	● [red]	● [red]	● [yellow] (yellow dots indicate moderate demethylation (<50% conversion))	● [green] (green dots indicate good demethylation (>50% conversion))	● [red]	● [red]	substrate conversion (demethylation) by KDM4D (KDM4D; 2 μM KDM4D, 10 μM peptide, 10 μM FAS, 100 μM LAA, 20 μM 2OG, HEPES pH 7.5, 2 h): 20–35%; mono-methylated product formed by KDM4E (KDM4E; [3]): ~64%
